Assay results taken from the Deep4Chem optical property database.
Blank lines part the entries; values can stand above or below the compound they belong to.

Assay: solvent given as SMILES

emission maximum (in C1COCCO1): 359 nm
emission maximum (in CC#N): 360 nm
emission maximum (in CC(C)O): 363 nm
emission maximum (in CCO): 364 nm
emission maximum (in CCOC(C)=O): 358 nm
emission maximum (in CN(C)C=O): 361 nm
emission maximum (in CO): 362 nm
emission maximum (in CS(C)=O): 363 nm
emission maximum (in OCC(O)CO): 372 nm
emission maximum (in OCCO): 365 nm
SMILES: Nc1ncnc2c1c(-c1ccc3ccccc3c1)nn2[C@H]1C[C@H](O)[C@@H](CO)O1

SMILES: COC(=O)/C(C#N)=c1\s/c(=c2/s/c(=C(/C#N)C(=O)OC)c3cc(-c4ccc(OC)cc4)sc23)c2sc(-c3ccc(OC)cc3)cc12
emission maximum (in Cc1ccccc1): 680 nm

emission maximum (in CCO): 412 nm
SMILES: Cc1nc2cc3c4c(cccc4c2o1)C(=O)OC3=O

emission maximum (in ClCCl): 544 nm
SMILES: F[B-]1(F)n2c(Oc3ccccc3)c(Cl)c(Br)c2C(Oc2ccccc2)=C2C(Br)=C(Cl)C(Oc3ccccc3)=[N+]21

emission maximum (in C1COCCO1): 442 nm
emission maximum (in CC#N): 441 nm
emission maximum (in CCCCOCCCC): 441 nm
emission maximum (in CCOC(C)=O): 440 nm
SMILES: c1ccc(Nc2nc(Nc3ccccc3)nc(Nc3ccc4cc5ccccc5cc4c3)n2)cc1

emission maximum (in C1CCOC1): 412 nm
SMILES: CC(C)(C)c1ccc(-c2c(-c3cccc(-n4c5ccccc5c5ccccc54)c3)c(C#N)c(-c3cccc(-n4c5ccccc5c5ccccc54)c3)c(-c3ccc(C(C)(C)C)cc3)c2-c2ccc(C(C)(C)C)cc2)cc1

emission maximum (in ClC(Cl)Cl): 508 nm
SMILES: CN1CCCc2cc(C3=Cc4cccc[n+]4[B-](F)(F)O3)ccc21

emission maximum (in C1CCOC1): 448 nm
SMILES: CC(C)(C)c1ccc(-c2c(-c3cccc(N(c4ccccc4)c4ccccc4)c3)c(C#N)c(-c3cccc(N(c4ccccc4)c4ccccc4)c3)c(-c3ccc(C(C)(C)C)cc3)c2-c2ccc(C(C)(C)C)cc2)cc1

SMILES: F[B-]1(F)N2C(=Nc3cccc4cccc2c34)c2cccc[n+]21
emission maximum (in CC#N): 413 nm
emission maximum (in CO): 383 nm
emission maximum (in CS(C)=O): 498 nm
emission maximum (in Cc1ccccc1): 384 nm

emission maximum (in ClCCl): 490 nm
SMILES: CN(C)c1cccc(/C=C/c2ncc(-c3ccc(OCc4ccccc4)c(OCc4ccccc4)c3)o2)c1

SMILES: CCC1(CC)c2ccccc2-c2c1c1c(c3c2C(CC)(CC)c2cc(B(c4c(C)cc(C)cc4C)c4c(C)cc(C)cc4C)ccc2-3)C(CC)(CC)c2ccccc2-1
emission maximum (in C1CCOC1): 385 nm
emission maximum (in CC#N): 404 nm
emission maximum (in CC(C)=O): 395 nm
emission maximum (in CCCCCC): 372 nm
emission maximum (in ClC(Cl)Cl): 387 nm

emission maximum (in C1CCCCC1): 468 nm
emission maximum (in CC#N): 524 nm
SMILES: CN(C)c1ccc(/C=C/c2nc3c(ccc4ccccc43)s2)cc1

emission maximum (in ClCCl): 538 nm
SMILES: CC[B-]1(CC)c2cccc3cc4ccccc4c(c23)-c2cccc(C)[n+]21

emission maximum (in CO): 658 nm
emission maximum (in CS(C)=O): 657 nm
emission maximum (in O): 658 nm
SMILES: CCCN1/C(=C/C=C(/C=C/C2=[N+](CCC)c3ccccc3C2(C)C)c2cc[n+](C)cc2)C(C)(C)c2ccccc21

SMILES: CCCOc1ccc(/C=C/C=C/C=C/c2ccc([N+](=O)[O-])cc2)cc1
emission maximum (in CC1CCCCC1): 488 nm
emission maximum (in CC#N): 747 nm
emission maximum (in Cc1ccccc1): 546 nm
emission maximum (in ClCCl): 699 nm

emission maximum (in CC#N): 430 nm
SMILES: C=CC(=O)Oc1ccc2cc(C=C)c(=O)oc2c1

emission maximum (in ClCCl): 360 nm
SMILES: Cc1cc2ccccc2c2[nH]c3ccccc3c12

emission maximum (in CC#N): 476 nm
emission maximum (in CCCCCC): 403 nm
SMILES: C(=C\c1cccnc1)/c1ccc(N(c2ccccc2)c2ccccc2)cc1

emission maximum (in C1COCCO1): 494 nm
SMILES: N#Cc1ccc(/C=C2\C=C(c3ccccc3)OC2=O)cc1

emission maximum (in C1CCOC1): 383 nm
SMILES: O=Cc1ccc(C=C(c2ccccc2)c2ccccc2)cc1

emission maximum (in C1CCOC1): 423 nm
SMILES: Cc1ccc(/C=C/C(F)(F)F)c(N)c1

SMILES: COc1cccc(/C=C/c2ccccc2)c1
emission maximum (in C1CCCCC1): 358 nm
emission maximum (in CC#N): 359 nm
emission maximum (in CC(C)O): 357 nm
emission maximum (in CCCCOCCCC): 358 nm
emission maximum (in CCOC(C)=O): 358 nm
emission maximum (in CCOCC): 357 nm

emission maximum (in ClCCl): 346 nm
SMILES: Cc1cc2sccc2c2[nH]c3ccccc3c12

emission maximum (in C1COCCO1): 630 nm
emission maximum (in ClCCl): 736 nm
SMILES: CCCCN(CCCC)c1ccc(/C=C/c2ccc3nc(/C=C/c4nc5ccc(/C=C/c6ccc(N(CCCC)CCCC)cc6)cc5n(CCC)c4=O)c(=O)n(CCC)c3c2)cc1
